This is an account of results in patent US11096923B2, “Pharmaceutical composition containing polymyxin B/trimethoprim based therapeutics” (University of Rochester, priority 2016, dated 2021).

One assay concerns P. aeruginosa PAO1. As to the kind of experiment: Selleck library screen in presence of sub-inhibitory polymyxin B/trimethoprim. The format is cell-based, Pseudomonas aeruginosa. Set-up: key: Growth (+); no growth (−). Particulars: for P. aeruginosa growth, 5 μM: drug 5 μM in presence of 0.2 μg ml^−1 polymyxin B/trimethoprim; for P. aeruginosa growth, 50 μM: drug 50 μM in presence of 0.2 μg ml^−1 polymyxin B/trimethoprim. Here is the method: (§1) To identify agents that potentiate the antimicrobial activity of polymyxin B/trimethoprim we first determined the highest concentration of the polymyxin B/trimethoprim combination that allowed growth of P. aeruginosa strain PAO1 and S. aureus strain UAMS-1.
For Selleck library screening, individual wells of 96-well microtiter plates containing 88 μl of fresh media were inoculated with approximately 10^5 CFUs of P. aeruginosa strain PAO1 or S. aureus UAMS-1. Next, 2 μl of polymyxin B/trimethoprim was added to a final concentration of 0.2 μg ml^−1 or 1.25 μg ml^−1 for PA01 and UAMS-1, respectively. Library members were then added at either 5 μM or 50 μM final concentration. Plates were incubated at 37° C. for 16 hours and hits were identified as wells with no visible growth. […]

For a further assay, the system named is S. aureus. The assay can be described thus: Fractional inhibitory concentration, checkerboard MIC. The assay is classed as cell-based, Staphylococcus aureus. The settings on record: S. aureus UAMS-1.
Another assay deals with S. aureus UAMS-1. As to the kind of experiment: Selleck library screen in presence of sub-inhibitory polymyxin B/trimethoprim. Set-up: key: Growth (+); no growth (−). Particulars: for S. aureus growth, 5 μM: drug 5 μM in presence of 1.2 μg ml^−1 polymyxin B/trimethoprim; for S. aureus growth, 50 μM: drug 50 μM in presence of 1.2 μg ml^−1 polymyxin B/trimethoprim. The assay is classed as cell-based, Staphylococcus aureus. How it is done:
as §1
For Selleck library screening, individual wells of 96-well microtiter plates containing 88 μl of fresh media were inoculated with approximately 10^5 CFUs of P. aeruginosa strain PAO1 or S. aureus UAMS-1. Next, 2 μl of polymyxin B/trimethoprim was added to a final concentration of 0.2 μg ml^−1 or 1.25 μg ml^−1 for PA01 and UAMS-1, respectively. Library members were then added at either 5 μM or 50 μM final concentration. Plates were incubated at 37° C. for 16 hours and hits were identified as wells with no visible growth.
To do so, 10^5 CFUs of S. aureus strain UAMS-1 were inoculated in individual wells of a microtiter plate supplemented with 1.2 μg ml^−1 of polymyxin B/trimethoprim, (0.25×MIC). Library members were added at low (5 μM) or high (50 μM) concentrations and then scored for agents that inhibited growth following overnight incubation. Such agents were expected to represent compounds that display antimicrobial activity on their own and/or that potentiate the antimicrobial activity of polymyxin B/trimethoprim.

The subject of assay [1] is P. aeruginosa. The assay can be described thus: Fractional inhibitory concentration, checkerboard MIC. The format is cell-based, Pseudomonas aeruginosa.
Another assay deals with P. aeruginosa biofilm. The arrangement: key: Killing (+) of established biofilms. The settings on record: established biofilms; adenylate kinase reporter; Blanchard et al., 2016; cited from earlier work.
The test system of assay [2] is P. aeruginosa. The assay can be described thus: MIC of clinical P. aeruginosa ocular isolates (antibiotic susceptibility profiles). The format is cell-based, Pseudomonas aeruginosa. The settings on record: Pseudomonas aeruginosa, read-out: Minimum Inhibitory Concentration. From the text: A series of genotyping and biological assays were used as a preliminary means to evaluate the clonality of clinical P. aeruginosa isolates collected, as follows. Genomic DNA was purified from each isolate using Qiagen DNeasy kits (Hilden, Germany) and used as a template for polymerase chain reactions to detect the presence of the virulence factors exoS, exoY, exoU, exoT, and perV using previously published primers (Table 1). See Allewelt M, Coleman F T, Grout M, Priebe G P, Pier G B. Acquisition of expression of the Pseudomonas aeruginosa ExoU cytotoxin leads to increased bacterial virulence in a murine model of acute pneumonia and systemic spread. Infection and immunity 2000; 68:3998-4004, Lomholt J A, Poulsen K, Kilian M. Epidemic population structure of Pseudomonas aeruginosa: evidence for a clone that is pathogenic to the eye and that has a distinct combination of virulence factors. Infection and immunity 2001; 69, and Ledbetter E C, Mun J J, Kowbel D, Fleiszig S M. Pathogenic phenotype and genotype of Pseudomonas aeruginosa isolates from spontaneous canine ocular infections. Investigative ophthalmology & visual science 2009; 50. […] See Institute C. Performance Standards for Antimicrobial Susceptibility Testing: Twenty-fifth Informational Supplement. Each isolate's ability to form biofilms was quantified. To do so, wells of a polystyrene plate containing 72-hour established biofilms were washed with 0.8% NaCl to remove non adherent cells and stained with crystal violet. To quantify biofilm staining, plates were washed 3 times with H2O, stain was suspended in 30% glacial acetic acid and the optical density (OD600nm) of each well was determined using an automated plate reader, as previously described. See Jacobs A C, Blanchard C E, Catherman S C, Dunman P M, Murata Y. An ribonuclease T2 family protein modulates Acinetobacter baumannii abiotic surface colonization. PloS one 2014; 9.

Assay [3] has as its system P. aeruginosa strain PA01. The format is cell-based, Pseudomonas aeruginosa. How it is done:
(§2) Spontaneous resistance to the indicated test agent(s) was measured for P. aeruginosa strain PA01 and S. aureus strain UAMS-1 using two liquid culture approaches. […] Growth was measured using the BacterioScan s216Dx laser microbial growth monitor, with optical measurements taken every 3 minutes over 40 hours. Following 40 hours, samples were plated for to measure viable colony forming units and re-tested for drug susceptibility.
(§3) To determine if these colonies represented untreated cells vs. resistant cells, 8 individual colonies from each treatment condition were randomly selected and tested for MICs.
(§4) Using an automated laser microbial growth monitor, the optical profiles of these cultures were measured continuously over time. […] Again 8 colonies were selected at random from each treatment group.

The next assay relates to S. aureus strain UAMS-1. The assay is classed as cell-based, Staphylococcus aureus. Particulars: 1×MIC, laser microbial growth monitor over 40 hours. How it is done:
as §2, §3, §4

Assay [4] concerns planktonic P. aeruginosa cells. As to the kind of experiment: Antimicrobial kill curves. Particulars: 2× MIC, 4 hours post-treatment. The format is cell-based, Pseudomonas aeruginosa. Here is the method: Overnight cultures of the indicated organism were used to inoculate (1:100 dilution) 100 ml of fresh media and grown to mid-exponential phase. […] Aliquots were taken at 1, 2, 3, 4, and 24 hours, serial diluted and plated for colony forming units.

Assay [5] has as its system S. aureus UAMS-1 biofilms. The assay can be described thus: Biofilm susceptibility. The format is cell-based, Staphylococcus aureus. Particulars: established S. aureus biofilm, 24 hrs treatment, 32×MIC. From the text:
Bacterial strains used in these studies include the conventional laboratory strains Pseudomonas aeruginosa PA01 and Staphylococcus aureus UAMS-1, both of which are antibiotic susceptible and capable of forming robust biofilms. See […], Thomas J R, Nelson […]. Role of the accessory gene regulator (agr) in pathogenesis of staphylococcal osteomyelitis. Infection and immunity 1995; 63:3373-3380. Seven clinical keratitis isolates of Pseudomonas aeruginosa, were collected from the Flaum Eye Institute, Rochester N.Y. and 25 clinical isolates of Staphylococcus aureus from geographically distinct regions of the country where purchased from International Health Management Associates (IHMA; Schaumburg, Ill.). For experiments requiring planktonic cultures, the indicated organism was grown overnight in Luria-Bertani broth (LB; […] Biofilms were established by inoculating individual wells of flat-bottom polystyrene plates (Falcon, Corning Life Sciences; Durham, N.C.) with overnight cultures of the indicated organism into 200 ul of fresh LB to a final concentration of 1×10^7 CFU ml^-1. Plates were placed in a 37° C.-humidified incubator for 72 hours to allow static biofilm formation. Non-adherent cells were aspirated and biofilms were washed twice with phosphate-buffered saline prior to each experiment. […] After 24 hrs the remaining media and non-adherent cells were removed, biofilms were suspended in 0.8% NaCl and plated to quantify surviving bacteria. […] Biofilms were treated in increasing increments ranging from 0 to 64×MIC.

For a further assay, the system named is MRSA keratitis isolates. The settings on record: MRSA keratitis isolates collected between 1993 and 2012; cited from earlier work.

Structures are written as SMILES.

As to `N[C@@H]1CCCCN(c2c(F)cc3c(=O)c(C(=O)O)cn(C4CC4)c3c2Cl)C1` [Besifloxacin, besifloxacin], in the assay on P. aeruginosa PAO1, the “P. aeruginosa growth, 5 μM” value was “−” and the “P. aeruginosa growth, 50 μM” value is “−”. Further, the MIC in combination in the assay with S. aureus (PT combined with besifloxacin) came out at 0.06 mg/L. Also, in the assay with S. aureus (Staphylococcus aureus), the MIC was 0.12 mg/L. For the same compound, in the assay on S. aureus UAMS-1, the “S. aureus growth, 5 μM” value is on record as “−” and the “S. aureus growth, 50 μM” value was “−”. In addition, the MIC in combination with P. aeruginosa [1] (P. aeruginosa PAO1, PT combined with besifloxacin) was determined as 0.78 mg/L. The MIC in the assay with P. aeruginosa [1] (Pseudomonas aeruginosa, PAO1, P. aeruginosa PAO1) was 1.56 mg/L. For the same compound, in the assay with P. aeruginosa biofilm, the “P. aeruginosa biofilm AK Signal” value is given as “+”.
In the case of `COc1c(N2C[C@@H]3CCCN[C@@H]3C2)c(F)cc2c(=O)c(C(=O)O)cn(C3CC3)c12` [Moxifloxacin, moxifloxacin], the MIC turned out to be 0.25 mg/L in the assay with P. aeruginosa [2] (P. aeruginosa ocular isolate RW01 (cornea)); 0.25 mg/L in the assay on P. aeruginosa [2] (P. aeruginosa ocular isolate RW02 (cornea)); 0.25 mg/L in the assay on P. aeruginosa [2] (P. aeruginosa ocular isolate RW03 (cornea)); 0.25 mg/L with P. aeruginosa [2] (P. aeruginosa ocular isolate RW04 (conjunctiva)); 0.125 mg/L in the assay on P. aeruginosa [2] (P. aeruginosa ocular isolate RW05 (cornea)); 0.5 mg/L in the assay with P. aeruginosa [2] (P. aeruginosa ocular isolate RW06 (cornea)). In addition, in the assay with P. aeruginosa [2] (P. aeruginosa ocular isolate RW07 (cornea)), the MIC was 0.125 mg/L. The “resistance of recovered cells on MIC retest” value in [3] is given as 2 ×MIC. Also, in assay [3] (P. aeruginosa, 1×MIC, laser microbial growth monitor over 40 hours), the “time until growth of treated culture” value is on record as “approximately 22 hours”. Moreover, in the assay with S. aureus strain UAMS-1, the “start of outgrowth of treated culture” value is 26 h. For the same compound, the “reduction in CFU at hour 4” value in assay [4] was determined as 5 log. Also, in [5], the “reduction in biofilm-associated CFU” value came out at 4 log.
Turning to `C[C@@H]1CN(c2c(F)c(N)c3c(=O)c(C(=O)O)cn(C4CC4)c3c2F)C[C@H](C)N1` [Sparfloxacin, sparfloxacin], in the assay with P. aeruginosa PAO1, the “P. aeruginosa growth, 5 μM” value was “−” and the “P. aeruginosa growth, 50 μM” value is “−”. In the assay on S. aureus UAMS-1, the “S. aureus growth, 5 μM” value is “−” and the “S. aureus growth, 50 μM” value is reported as “−”. The “P. aeruginosa biofilm AK Signal” value in the assay with P. aeruginosa biofilm is on record as “+”.
Consider `COc1c(N2CCNC(C)C2)c(F)cc2c(=O)c(C(=O)O)cn(C3CC3)c12` (centres unmarked) [gatifloxacin], for which the isolates displaying resistance with MRSA keratitis isolates is roughly 45.9%.
Regarding `Cc1cc(NS(=O)(=O)c2ccc(N)cc2)no1` [sulfamethoxazole], the isolates displaying resistance with MRSA keratitis isolates is listed as 5.7%.
Regarding `COc1cc(Cc2cnc(N)nc2N)cc(OC)c1OC` [trimethoprim], in the assay with MRSA keratitis isolates, the isolates displaying resistance is 11.5%.
